Experimental findings from patent US5576187A (priority 1994, dated 1996) are described below.

In this test the test system is anti-chlorpyrifos monoclonal antibody. Format: binding, mouse.

In the case of `Cn1c(Cl)c(Cl)cc(Cl)c1=O` [N-methyl-3,5,6-trichloro-2-pyridinone], the “relative reactivity: concentration equivalent to 1 ppB of chlorpyrifos in the immunoassay” value worked out at 75 ppm.

Take `CCOP(=O)(Cc1ccc(C)cc1)OCC` [diethyl 4-methylbenzylphosphonate]: the “relative reactivity: concentration equivalent to 1 ppB of chlorpyrifos in the immunoassay” value came out at 50 ppm.
